# Laboratory results taken from patent US20240269320A1, “EXTENDED RELEASE DRUG DELIVERY SYSTEM FOR OCULAR DRUGS AND METHODS OF USE” (Eyedea Bio, LLC, priority 2021, published 2024).
# Entries after “also recorded” stand apart in the source; their conditions may differ. Like-named read-outs stand apart in the source and are kept apart here. Non-standard residues stand in square brackets, D forms with d. Residues, ends and D or L forms follow the SMILES beside them. *: point of attachment. Dmt = Cc1cc(O)cc(C)c1C[C@H](N)C(=O)O; X1 = CCCCCCCCCCCCCCCCCCO*
# How the values were obtained:
# [1] = flowable bolus implant, multiple time points
# [2] = Sunitinib malate bio-erodible tube implant, drug levels in retina tissue of rabbits; assay type: in vivo, rabbit
# Excerpt: In another example, formulations of the hydrophilic small molecule sunitinib malate in the multiphasic colloidal suspension were developed (FIGS. 20-22). […] Complexation of sunitinib to selected complexation agents was visually confirmed by admixture and pulldown of sunitinib-complex particulates, which was confirmed since by the yellow-orange color of particulates (sunitinib has orange coloration) (FIG. 21).
# In another example, formulations of the hydrophilic small molecule sunitinib malate in the multiphasic colloidal suspension were developed. […] Complexation of sunitinib to selected complexation agents was visually confirmed by admixture and pulldown of sunitinib-complex particulates, which was confirmed since by the yellow-orange color of particulates (sunitinib has orange coloration). Formulations of sunitinib with two-phase release kinetics in a bio-erodible tube formulation of sunitinib multiphasic colloidal suspension were designed and manufactured. […] Alteration of the ratio of sunitinib-complex particulates reduced the amount of drug released during initial burst and lowered the steady state release.
# [3] = In vivo kinetics after intravitreal injection of bolus implant in rabbit eyes (LC/MS, retina); details: for residual drug in recovered bolus/implants: bolus formulation of native peptide
# [4] = In vitro to in vivo correlation of fluocinolone acetonide release, rabbit eyes; details: formulations in multiphasic colloidal suspension
# Procedure: Properties of Kd and binding capacity were calculated for each FA-complex particulate, in dispersal medium (FIG. 15). […] FIG. 16B illustrates other formulations, wherein varying the ratio of drug-complex particulates altered the kinetics of release, as the proportion of complexation agent (KET) with higher avidity (Kd) was increased across the formulations, for a given payload of FA.
# The depicted curves reflect in vitro release profiles, while the individual colored points, circled, represent in vivo release data from rabbit eyes.
# carboxyesterase = assay: Cleavage of prodrug ester bond by carboxyesterase in vitro; assay type: in vitro ADME; details: 37° C., carboxyesterase 0.1 μg/mL
# Procedure: One specific example of EY005-prodrug includes EY005-stearyl (depicted in FIG. 27A), wherein EY005 is linked via ester bond to stearyl alcohol, one member from the group of long-chain saturated fatty alcohols. On cleavage of the ester bond, the prodrug EY005-stearyl releases the EY005 MTT. […] Upon addition of EY005-stearyl prodrug to phosphate-buffered saline solution at 37° C. without esterase, the ester bond of the EY005-stearyl prodrug cleaves more slowly (˜36 hours) by hydrolysis (FIG. 28C).
# EY005-stearyl was incubated at 37° C. in vitro with carboxyesterase (0.1 μg/mL), to simulate the ocular physiologic environment and the type of esterase that is readily abundant within the vitreous. […] Upon addition of EY005-stearyl prodrug to phosphate-buffered saline solution at 37° C. without esterase, the ester bond of the EY005-stearyl prodrug cleaves more slowly by hydrolysis (FIG. 28C).
# In some examples of prodrugs, cleavage and release of the free API can be assessed in an in vitro release assay, wherein the prodrug is incubated in a solution containing carboxyesterase (or other natural or synthetic esterase), isolated vitreous recovered from animal (e.g., pig, rabbit, etc.), or isolated vitreous recovered from human donor, at […], […], or other temperatures. […]
structure (smiles),measurement,setting,value
CNC(=O)c1ccccc1Sc1ccc2c(/C=C/c3ccccn3)n[nH]c2c1 [axitinib],drug levels in retina tissue,[1],detectable drug levels in retina tissue
CCN(CC)CCNC(=O)c1c(C)[nH]c(/C=C2\C(=O)Nc3ccc(F)cc32)c1C [sunitinib malate],release kinetics (pharmacokinetics) and tissue levels of tube formulation,[2]; bio-erodible tube formulation,"produced desired tissue levels and durability of release; also recorded: two-phase release with high initial burst, followed by steady-state release"
same,drug levels in retina tissue,"[2]; low and high dose implants, multiple time points",detectable drug levels in retina tissue
"Cc1cc(O)cc(C)c1C[C@H](NC(=O)[C@H](N)CCCNC(=N)N)C(=O)N[C@@H](CCCCN)C(=O)N[C@@H](Cc1ccccc1)C(=O)O [EY005, H-d-Arg-DMT-Lys-Phe] (H-[dR][Dmt]KF-OH; C-terminus assumed)",time beyond which no detectable tissue levels,[3]; bolus formulation of native API administered into the vitreous,≤ 21 days
same,residual drug in recovered bolus/implants,"[3]; rabbits, listed as EY005 native peptide",Recovered implants contained no EY005 native peptide
same,residual drug in recovered bolus/implants,"[3]; rabbits, listed as native API",no residual drug in the recovered bolus
same,tissue concentrations,"[3]; by week 3.5, identical bolus formulation, rabbits",nearly undetectable
"CC1(C)O[C@@H]2C[C@H]3[C@@H]4C[C@H](F)C5=CC(=O)C=C[C@]5(C)[C@@]4(F)[C@@H](O)C[C@]3(C)[C@]2(C(=O)CO)O1 [FA, fluocinolone acetonide]",correlation between drug release in vitro and in vivo (retina tissue levels),[4],strong correlation
same,correlation between drug release in vitro and in vivo (retina tissue levels),[4]; listed as fluocinolone acetonide,good in vitro to in vivo correlation
"CCCCCCCCCCCCCCCCCCOC(=O)[C@H](Cc1ccccc1)NC(=O)[C@H](CCCCN)NC(=O)[C@H](Cc1c(C)cc(O)cc1C)NC(=O)[C@H](N)CCCNC(=N)N [EY005-stearyl, H-d-Arg-DMT-Lys-Phe(O)-stearyl] (H-[dR][Dmt]KF-X1)","cleavage of the prodrug ester bond, releasing EY005 (HPLC)",carboxyesterase,rapid cleavage of the prodrug ester bond
